The text below walks through data of patent publication US7659251B2, “Ligand for G-protein coupled receptor FPRL2” (priority 2004, dated 2010).

Assay [1] has as its target T1, FPR (Homo sapiens, UniProt P21462, E346A/V101L).
T1 construct: expressed in transfected cells; host or cells: CHO-K1 (with or without Galpha16 and apoaequorin)
T1 sequence (P21462 1-350 V101L/E346A): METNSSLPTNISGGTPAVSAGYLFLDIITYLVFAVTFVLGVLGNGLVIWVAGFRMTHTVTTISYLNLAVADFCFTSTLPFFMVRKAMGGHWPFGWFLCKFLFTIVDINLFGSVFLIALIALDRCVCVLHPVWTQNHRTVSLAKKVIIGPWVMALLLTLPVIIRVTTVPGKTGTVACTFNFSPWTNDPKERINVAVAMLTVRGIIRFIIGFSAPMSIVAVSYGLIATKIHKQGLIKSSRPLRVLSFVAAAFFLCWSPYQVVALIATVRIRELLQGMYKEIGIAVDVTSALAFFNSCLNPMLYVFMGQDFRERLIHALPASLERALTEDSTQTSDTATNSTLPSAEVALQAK
Description: cAMP accumulation assay (HTRF, forskolin) on FPR-expressing CHO-K1 cells. In kind it is cell-based. The procedure: (§1) The cAMP concentrations were determined using a homogeneous time-resolved fluorescence (HTRF) kit (Cis Bio International). Briefly, cells were detached, resuspended in Krebs Ringer Hepes buffer containing 1 mM 3-Isobutyl-1-methylxanthine, and submitted to 10 μM forskolin, alone or together with increasing concentrations of agonists for 30 min at room temperature. The reaction was stopped by the successive addition of cAMP-XL665 and anti-cAMP cryptate diluted in lysis buffer. The plates were incubated for 60 min at room temperature and read on a Rubystar fluorimeter (BMG). […] A calibration curve was obtained by plotting delta F % versus cAMP concentrations. […] The aequorin-based assay was performed with or without overnight pretreatment with 100 ng/ml Pertussis toxin. […] For FPRL2 polymorphism analysis, HEK cells were transiently transfected with empty and wild-type or Asp338H is FPRL2-containing pcdna vector using calcium phosphate method. Cells were recovered 48 hours later and used for FACS or cAMP experiments.
On the technique in general: Changes in cAMP serve as a functional read-out for many G protein-coupled receptors.

The target of the next assay is T2, FPRL1 (Homo sapiens, UniProt P25090).
T2 construct: expressed in transfected cells; host or cells: CHO-K1 (with or without Galpha16 and apoaequorin)
T2 sequence (P25090 1-351): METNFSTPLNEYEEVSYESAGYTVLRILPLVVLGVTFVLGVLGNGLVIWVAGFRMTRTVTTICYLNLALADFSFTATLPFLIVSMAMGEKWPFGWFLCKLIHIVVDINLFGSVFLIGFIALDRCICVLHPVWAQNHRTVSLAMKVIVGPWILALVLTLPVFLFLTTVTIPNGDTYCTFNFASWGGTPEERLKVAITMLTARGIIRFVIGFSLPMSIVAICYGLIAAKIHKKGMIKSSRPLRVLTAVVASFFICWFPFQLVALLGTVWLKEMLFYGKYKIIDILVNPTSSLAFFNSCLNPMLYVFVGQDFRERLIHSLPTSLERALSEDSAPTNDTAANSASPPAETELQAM
The assay can be described thus: Competition binding on FPRL1-expressing CHO-K1 cells, tracer [125I]-WKYMVm. The settings on record: up to concentrations of 3 μM. The procedure:
(§2) FPRL2, FPRL1 and FPR-expressing CHO-K1 cells were plated in 24 wells plates (200,000 cells per well for FPRL2, and 100,000 cells per well for the two other receptors). The next day, the cells were washed twice with a KRH buffer containing 280 mM saccharose and, for FPRL1 and FPR, 0.1 % NaN3. […] Cells were washed twice with ice cold buffer, total radioactivity was recovered with 1 M […] and counted in a gamma counter for […]

Assay [2] has as its target T1, FPR. Description: Competition binding on FPR-expressing CHO-K1 cells, tracer [125I]-WKYMVm. The procedure: as §2
For a further assay, the system named is monocytes. Description: Ca2+ mobilization assay on monocytes. In kind it is cell-based, human. The settings on record: 100 nM F2L; FIG. 13C. The procedure: Monocyte-derived DCs were generated either from the adherent fraction of PBMCs cultured with GM-CSF (800 U/ml) and […] (500 U/ml), or from Percoll-purified monocytes cultured with GM-CSF (50 ng/ml) and IL-13 (20 ng/ml), for 5 to 7 days. For Ca^2+ mobilization assay, monocytes were obtained by negative selection with the Monocyte Isolation Kit II (Miltenyi Biotec). […] For Ca^2+ mobilization assays, monocyte-derived DCs or monocytes (5×10^5 cells/ml in HBSS without phenol red but containing 0.1% BSA and 1 mM Probenecid (Sigma)) were loaded with 4 μM Fluo 4 (Molecular Probes) for 1 h at 20° C. in the dark. The loaded cells were washed twice, resuspended at 1 to 2×10^6 cells/ml and 50 μl of cell suspension was distributed per well of a 96 well plate (Viewplate, Packard Bioscience). Reading was performed in a Fluostar fluorimeter (BMG) at 25° C.: 50 μl of ligand-containing medium was injected, and the fluorescence at 520 nm was recorded every second for 1 to 3 min. Each condition was performed in triplicate, the mean fluorescence for each time point was calculated, and the curves were normalized by subtracting the mean value of the five measurements preceding the injection.
(Calcium flux is commonly read through the fluorescence of an indicator in the cells.)

Another assay concerns the target T3, FPRL2 (Homo sapiens, UniProt P25089).
T3 sequence (P25089 1-353): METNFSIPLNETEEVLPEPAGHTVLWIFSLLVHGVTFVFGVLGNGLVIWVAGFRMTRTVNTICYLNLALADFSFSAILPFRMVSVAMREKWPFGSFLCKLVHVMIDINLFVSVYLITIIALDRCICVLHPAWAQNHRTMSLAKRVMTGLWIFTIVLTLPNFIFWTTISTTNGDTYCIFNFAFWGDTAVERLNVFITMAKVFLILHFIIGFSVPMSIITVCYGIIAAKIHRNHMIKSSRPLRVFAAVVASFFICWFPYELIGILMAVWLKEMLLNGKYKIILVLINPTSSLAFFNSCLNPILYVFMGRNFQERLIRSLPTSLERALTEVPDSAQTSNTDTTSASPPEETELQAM
Description: cAMP accumulation assay (HTRF, forskolin) on FPRL2-expressing CHO-K1 cells. Type of assay: cell-based. More on the design: expressed in transfected cells; host or cells: CHO-K1. The settings on record: CHO-K1 cells expressing FPRL2 but not G alpha 16; without forskolin. The procedure:
as §1, with “Briefly, cells were detached, resuspended in Krebs Ringer Hepes buffer containing 1 mM 3-Isobutyl-1-methylxanthine, and submitted to 10 μM forskolin, alone or together with increasing concentrations of agonists for 30 min at room temperature.” left out

The structures appear in SMILES notation.

With `CC[C@H](C)[C@H](NC(=O)[C@H](CCSC)NC(=O)CNC(=O)[C@H](CC(C)C)NC(=O)[C@H](CCSC)NC(C)=O)C(=O)N[C@@H](CCCCN)C(=O)N[C@@H](CC(N)=O)C(=O)N[C@@H](CO)C(=O)N[C@@H](CC(C)C)C(=O)N[C@@H](Cc1ccccc1)C(=O)NCC(=O)N[C@@H](CO)C(=O)N[C@H](C(=O)N[C@@H](CCC(=O)O)C(=O)N[C@H](C(=O)N[C@@H](Cc1c[nH]c2ccccc12)C(=O)N1CCC[C@H]1C(=O)N[C@@H](Cc1c[nH]c2ccccc12)C(=O)N[C@@H](CCC(N)=O)C(=O)N[C@H](C(=O)N[C@@H](CC(C)C)C(=O)O)C(C)C)[C@@H](C)O)C(C)C` [F2L], the “inhibition of cAMP accumulation on FPR” value against FPR [1] (1 μM F2L) is “only partial inhibition”. The EC50 on FPR [1] (FPR, −Log of EC50 in Mol/L, mean ± s.e.m., read-out: pEC50 (cAMP assay) (converted)) was greater than 1000 nM. Moreover, at FPRL1, the “competition for FPRL1 binding” value was “no competition”. Besides, at FPR [2] (FPR, −Log of IC50 in Mol/L, mean ± s.e.m., read-out: pIC50 (binding assay) (converted)), the IC50 was greater than 1000 nM. In addition, the “competition for FPR binding” value on FPR [2] (up to concentrations of 3 μM, tracer [125I]WKYMVm) is recorded as “no competition”. Moreover, the “calcium mobilization in purified monocytes” value with monocytes is reported as “Calcium mobilization was also observed”. Besides, at FPRL2, the “stimulation of cAMP production by itself” value was “unable to stimulate cAMP production”.
